Key:
Test in all cases: relative viability (nuclei count vs DMSO), 5 days (fraction); higher = more cells survive
CUDC-101 + Luminespib = compound: C#Cc1cccc(Nc2ncnc3cc(OC)c(OCCCCCCC(=O)NO)cc23)c1 [CUDC-101] + CCNC(=O)c1noc(-c2cc(C(C)C)c(O)cc2O)c1-c1ccc(CN2CCOCC2)cc1 [Luminespib] (partner 0.01 µM)
Outline: (§1)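 Lung cancer cell lines, seeded in 1536-well plates, were treated the following day by pin tool with a single drug or with five library-drug doses (not always all listed) in √10 steps on top of a fixed anchor-drug dose. Cells were fixed and nuclei stained in one step after 5 days, and nuclei were counted. Relative viability is the nuclei count for treated wells divided by that for vehicle wells, reported as medians of duplicate plates.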

CUDC-101 + Decitabine = compound: C#Cc1cccc(Nc2ncnc3cc(OC)c(OCCCCCCC(=O)NO)cc23)c1 [CUDC-101] + Nc1ncn([C@H]2C[C@H](O)[C@@H](CO)O2)c(=O)n1 [Decitabine] (partner 2 µM)
Outline: as §1

NVP-TAE684 + Phenformin = compound: COc1cc(N2CCC(N3CCN(C)CC3)CC2)ccc1Nc1ncc(Cl)c(Nc2ccccc2S(=O)(=O)C(C)C)n1 [NVP-TAE684] + N=C(N)NC(=N)NCCc1ccccc1 [Phenformin] (partner 250 µM)
Outline: as §1

Vandetanib + Navitoclax = compound: COc1cc2/c(=N/c3ccc(Br)cc3F)nc[nH]c2cc1OCC1CCN(C)CC1 [Vandetanib] + CC1(C)CCC(c2ccc(Cl)cc2)=C(CN2CCN(c3ccc(C(=O)NS(=O)(=O)c4ccc(N[C@H](CCN5CCOCC5)CSc5ccccc5)c(S(=O)(=O)C(F)(F)F)c4)cc3)CC2)C1 [Navitoclax] (partner 0.5 µM)
Outline: as §1

Cell Line NCI-H1650 has a relative viability (CUDC-101 + Luminespib; first compound 0.01 µM) of 0.25, a relative viability (CUDC-101 + Luminespib; first compound 0.03162 µM) of 0.221 and a relative viability (CUDC-101 + Luminespib; first compound 0.1 µM) of 0.189. For the same cell line, the relative viability (CUDC-101 + Luminespib; first compound 0.3162 µM) was 0.166, the relative viability (CUDC-101 + Luminespib; first compound 1 µM) was 0.193 and the relative viability (CUDC-101 + Decitabine; first compound 0.01 µM) was 0.351. For the same cell line, the relative viability (CUDC-101 + Decitabine; first compound 0.03162 µM) was 0.444, the relative viability (CUDC-101 + Decitabine; first compound 0.1 µM) was 0.469 and the relative viability (CUDC-101 + Decitabine; first compound 0.3162 µM) was 0.387. It also gave a relative viability (CUDC-101 + Decitabine; first compound 1 µM) of 0.302, a relative viability (NVP-TAE684 + Phenformin; first compound 0.2 µM) of 0.505 and a relative viability (NVP-TAE684 + Phenformin; first compound 0.6325 µM) of 0.285. For the same cell line, the relative viability (NVP-TAE684 + Phenformin; first compound 2 µM) was 0.148, the relative viability (Vandetanib + Navitoclax; first compound 0.02 µM) was 1.15 and the relative viability (Vandetanib + Navitoclax; first compound 0.06325 µM) was 1.02. It also gave a relative viability (Vandetanib + Navitoclax; first compound 0.6325 µM) of 1.1 and a relative viability (Vandetanib + Navitoclax; first compound 2 µM) of 1.13.
Work on NCI-H1651 yielded a relative viability (CUDC-101 + Luminespib; first compound 0.01 µM) of 0.787, a relative viability (CUDC-101 + Luminespib; first compound 0.03162 µM) of 0.77 and a relative viability (CUDC-101 + Luminespib; first compound 0.1 µM) of 0.811. It also gave a relative viability (CUDC-101 + Luminespib; first compound 0.3162 µM) of 0.991, a relative viability (CUDC-101 + Luminespib; first compound 1 µM) of 0.839 and a relative viability (CUDC-101 + Decitabine; first compound 0.01 µM) of 0.671. It also gave a relative viability (CUDC-101 + Decitabine; first compound 0.03162 µM) of 0.645, a relative viability (CUDC-101 + Decitabine; first compound 0.1 µM) of 0.643 and a relative viability (CUDC-101 + Decitabine; first compound 0.3162 µM) of 0.594. For the same cell line, the relative viability (CUDC-101 + Decitabine; first compound 1 µM) was 0.515, the relative viability (NVP-TAE684 + Phenformin; first compound 0.2 µM) was 0.278 and the relative viability (NVP-TAE684 + Phenformin; first compound 0.6325 µM) was 0.336. For the same cell line, the relative viability (NVP-TAE684 + Phenformin; first compound 2 µM) was 0.179, the relative viability (Vandetanib + Navitoclax; first compound 0.02 µM) was 0.927 and the relative viability (Vandetanib + Navitoclax; first compound 0.06325 µM) was 1.11. For the same cell line, the relative viability (Vandetanib + Navitoclax; first compound 0.2 µM) was 1.08, the relative viability (Vandetanib + Navitoclax; first compound 0.6325 µM) was 1.07 and the relative viability (Vandetanib + Navitoclax; first compound 2 µM) was 0.928.
Cell Line NCI-H1666 has a relative viability (CUDC-101 + Luminespib; first compound 0.01 µM) of 1.09, a relative viability (CUDC-101 + Luminespib; first compound 0.03162 µM) of 1.02 and a relative viability (CUDC-101 + Luminespib; first compound 0.1 µM) of 1.1. It also gave a relative viability (CUDC-101 + Luminespib; first compound 0.3162 µM) of 1, a relative viability (CUDC-101 + Luminespib; first compound 1 µM) of 1.07 and a relative viability (CUDC-101 + Decitabine; first compound 0.01 µM) of 0.769. For the same cell line, the relative viability (CUDC-101 + Decitabine; first compound 0.03162 µM) was 0.734, the relative viability (CUDC-101 + Decitabine; first compound 0.1 µM) was 0.693 and the relative viability (CUDC-101 + Decitabine; first compound 0.3162 µM) was 0.752. For the same cell line, the relative viability (CUDC-101 + Decitabine; first compound 1 µM) was 0.61, the relative viability (NVP-TAE684 + Phenformin; first compound 0.2 µM) was 0.564 and the relative viability (NVP-TAE684 + Phenformin; first compound 0.6325 µM) was 0.505. For the same cell line, the relative viability (NVP-TAE684 + Phenformin; first compound 2 µM) was 0.501, the relative viability (Vandetanib + Navitoclax; first compound 0.02 µM) was 0.83 and the relative viability (Vandetanib + Navitoclax; first compound 0.06325 µM) was 0.861. For the same cell line, the relative viability (Vandetanib + Navitoclax; first compound 0.2 µM) was 0.951, the relative viability (Vandetanib + Navitoclax; first compound 0.6325 µM) was 0.88 and the relative viability (Vandetanib + Navitoclax; first compound 2 µM) was 0.46.
NCI-H1734 was tested, and the relative viability (CUDC-101 + Luminespib; first compound 0.01 µM) was 0.206, the relative viability (CUDC-101 + Luminespib; first compound 0.03162 µM) was 0.185 and the relative viability (CUDC-101 + Luminespib; first compound 0.1 µM) was 0.193. It also gave a relative viability (CUDC-101 + Luminespib; first compound 0.3162 µM) of 0.167, a relative viability (CUDC-101 + Luminespib; first compound 1 µM) of 0.157 and a relative viability (CUDC-101 + Decitabine; first compound 0.01 µM) of 0.514. The relative viability (CUDC-101 + Decitabine; first compound 0.03162 µM) was 0.487, the relative viability (CUDC-101 + Decitabine; first compound 0.1 µM) was 0.497 and the relative viability (CUDC-101 + Decitabine; first compound 0.3162 µM) was 0.471. For the same cell line, the relative viability (CUDC-101 + Decitabine; first compound 1 µM) was 0.389, the relative viability (NVP-TAE684 + Phenformin; first compound 0.2 µM) was 0.332 and the relative viability (NVP-TAE684 + Phenformin; first compound 0.6325 µM) was 0.338. For the same cell line, the relative viability (NVP-TAE684 + Phenformin; first compound 2 µM) was 0.255, the relative viability (Vandetanib + Navitoclax; first compound 0.02 µM) was 0.854 and the relative viability (Vandetanib + Navitoclax; first compound 0.06325 µM) was 0.766. The relative viability (Vandetanib + Navitoclax; first compound 0.2 µM) was 0.801, the relative viability (Vandetanib + Navitoclax; first compound 0.6325 µM) was 0.804 and the relative viability (Vandetanib + Navitoclax; first compound 2 µM) was 0.818.
Cell Line NCI-H1755 has a relative viability (CUDC-101 + Luminespib; first compound 0.01 µM) of 0.602, a relative viability (CUDC-101 + Luminespib; first compound 0.03162 µM) of 0.302 and a relative viability (CUDC-101 + Luminespib; first compound 0.1 µM) of 0.496. For the same cell line, the relative viability (CUDC-101 + Luminespib; first compound 0.3162 µM) was 0.576, the relative viability (CUDC-101 + Luminespib; first compound 1 µM) was 0.394 and the relative viability (CUDC-101 + Decitabine; first compound 0.01 µM) was 0.695. It also gave a relative viability (CUDC-101 + Decitabine; first compound 0.03162 µM) of 0.748, a relative viability (CUDC-101 + Decitabine; first compound 0.1 µM) of 0.83 and a relative viability (CUDC-101 + Decitabine; first compound 0.3162 µM) of 0.755. It also gave a relative viability (CUDC-101 + Decitabine; first compound 1 µM) of 0.64, a relative viability (NVP-TAE684 + Phenformin; first compound 0.2 µM) of 0.631 and a relative viability (NVP-TAE684 + Phenformin; first compound 0.6325 µM) of 0.537. The relative viability (NVP-TAE684 + Phenformin; first compound 2 µM) was 0.512, the relative viability (Vandetanib + Navitoclax; first compound 0.02 µM) was 1.03 and the relative viability (Vandetanib + Navitoclax; first compound 0.06325 µM) was 0.979. It also gave a relative viability (Vandetanib + Navitoclax; first compound 0.2 µM) of 0.968, a relative viability (Vandetanib + Navitoclax; first compound 0.6325 µM) of 0.973 and a relative viability (Vandetanib + Navitoclax; first compound 2 µM) of 0.972.
